One data set relates to MycCaP;Pten-KO cells. Description: Tumor growth inhibition, MycCaP;Pten-KO subcutaneous allograft in male FVB/N mice. Conditions: after 14 d; for Efficacy MycCaP;Pten-ko (TGI @ 100 mg/kg/d po): male FVB/N mice, Table 3; for TGI: QD, Table 7. Type of data set: in vivo. The method, then: (§1) Table 3. Biological data of selected compounds. […] Tumor growth inhibition (TGI) was determined after 14 d.
Table 7. Tumor Growth Inhibition data. […] Tumor growth inhibition (TOD was determined after 14 d.

The next data set deals with PC3 cells. Description: PC3 cell viability, CellTitreGlo Assay, 72 hrs. It counts as cell-based. Conditions: Homo sapiens, PC-3. In a few lines:
(§2)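 For viability IC50, PC3 and PC12 cells were exposed to a compound concentration range for 72 hrs and read by CellTitreGlo. MYC and ATF4 were measured in PC3 cells after 24 hr treatment by western blot, normalised to Actin and quantified by imager.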

Data set [1] is described as follows: Toxicity (weight loss) in tumor-bearing mice. It counts as in vivo. Conditions: weight loss class. The method, then:
as §1

The subject of the next data set is PC12 cells. Description: PC12 cell viability, CellTitreGlo Assay, 72 hrs. It counts as cell-based. Conditions: Rattus norvegicus, PC-12. The method, then: Table 2. Biological data of selected compounds. For IC50 determination. PC3 and PC12 cells were treated with increasing concentrations of the indicated compounds for 72 hrs and cell viability assessed using CellTitreGlo Assay (Promega). For MYC and ATF4 protein level determination. PC3 cells were treated with the indicated compounds for 24 hr sand cell lysates processed for western blot with MYC and ATF4 antibodies using Actin as a control. Quantification analyses were performed by Biorad ChemiDoc Imager and Bio-Rad Image Lab software.

For data set [2] the following is noted: female, mouse, in vivo, po, 1 mg/kg.
Procedure: (§3) PK: Plasma levels of compounds were determined after 1 mg/kg dosing PO in female BALB/C mice.
(§4) Plasma levels of compounds were determined after 1 mg/kg dosing PO in female BALB/C mice.
The subject of another data set is ATF4. Description: ATF4 protein level in PC3 cells by western blot, 24 hr. Type of data set: cell-based. Conditions: Homo sapiens, PC-3, PC3, 24 h, Actin control, read-out: Relative ATF4 protein at 10 μM (fold change, PC3 24 h). In a few lines:
as §2
On the technique in general: Immunoblotting shows a protein as a band on a membrane.

The next data set deals with T1, MYC (Homo sapiens, UniProt P01106).
T1 construct: endogenous in cells; host or cells: PC3 cells
The experiment in a line: MYC protein level in PC3 cells by western blot, 24 hr. Conditions: PC-3, 24 h, PC3, 24 h, Actin control, read-out: Relative MYC protein at 10 μM (%, PC3 24 h). It counts as cell-based. In a few lines:
as §2

Data set [3] can be described thus: Plasma pharmacokinetics after 1 mg/kg PO in female mice. Conditions: mouse; for half-life: female mice.
Procedure: as §3, §4

Some results are limits rather than exact numbers.

T1 sequence (P01106 whole entry): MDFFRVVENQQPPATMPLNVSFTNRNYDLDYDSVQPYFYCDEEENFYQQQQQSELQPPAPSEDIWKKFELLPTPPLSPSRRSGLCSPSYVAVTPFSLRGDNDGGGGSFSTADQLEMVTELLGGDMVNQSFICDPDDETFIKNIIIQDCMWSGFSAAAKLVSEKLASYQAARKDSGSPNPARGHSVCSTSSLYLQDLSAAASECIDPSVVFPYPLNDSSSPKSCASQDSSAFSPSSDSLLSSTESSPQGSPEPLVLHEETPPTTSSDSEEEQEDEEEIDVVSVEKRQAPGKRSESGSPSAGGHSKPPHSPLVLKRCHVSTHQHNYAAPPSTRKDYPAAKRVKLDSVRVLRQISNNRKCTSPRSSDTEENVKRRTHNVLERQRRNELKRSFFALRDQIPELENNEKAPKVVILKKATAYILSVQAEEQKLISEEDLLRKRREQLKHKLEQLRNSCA

What is called IC50 is the concentration at which inhibition is half-maximal. As to `Cn1nc(C(F)(F)F)cc1-c1ccc(OCc2ccc(Cl)cc2)c(-c2ccc(Cl)c(C(F)(F)F)c2)c1O` [MYCi975, reference compound], the “Efficacy MycCaP;Pten-ko (TGI @ 100 mg/kg/d po)” value (“Efficacy MycCaP;Pten-ko” for short) in the data set with MycCaP;Pten-KO cells worked out at 50. The IC50 is 2900 ± 500 nM in the data set with PC3 cells and greater than 16000 nM with PC12 cells. Further, in data set [1], the “Toxicity @ 100 mg/kg/d” value is “− (−, 0-5% weight loss)”.
What is called TGI is how far tumour growth fell short of that in controls. One may read the AUC(0-t) as the area under the concentration-time curve up to a stated or last time point. A word on the Cmax: it is the peak of the concentration-time curve. The term Tmax denotes the time at which the peak concentration occurs. Compound `Cn1nc(C(F)(F)F)cc1-c1cc(Cl)c(COc2ccc(Cl)cc2)c(-c2ccc(Cl)c(C(F)(F)F)c2)c1O` [NUCC-0226605] had an AUMC0-t in data set [2] of 49995 h*h*ng/mL. Besides, the TGI was 56.29% in the data set on MycCaP;Pten-KO cells (10 mg/kg p.o.), 65.67% with MycCaP;Pten-KO cells (30 mg/kg p.o.) and 92.51% with MycCaP;Pten-KO cells (100 mg/kg p.o.). Moreover, the “Efficacy MycCaP;Pten-ko” value with MycCaP;Pten-KO cells is listed as 90. The fold induction at 10 µM in the data set with ATF4 turned out to be 10.3 ± 1.5. Further, the IC50 in the data set with PC3 cells was found to be 1000 nM; in the data set with PC12 cells, 10500 nM. Further, in data set [1], the “Toxicity @ 100 mg/kg/d” value is on record as “++ (++, 15-20% weight loss)”. For the same compound, the remaining activity at 10 µM on MYC was determined as 34.7 ± 3.2%. Besides, the area under the curve AUC(0-t) in data set [3] was found to be 4830 ng·h/mL. The concentration in data set [3] peaked (Cmax) at 274 ng/mL. Also, in data set [3], the Tmax worked out at 8 h.
In general, AUC(0-inf) refers to total exposure, with the tail of the curve extrapolated. As usually defined, the MRT inf is the average time that molecules of a dose stay in the body. One may read the half-life as the time needed for the level to fall by half in the phase considered. A higher half-life goes with slow decline. For the compound `Cn1nc(C(F)(F)F)c(Cl)c1-c1cc(Cl)c(COc2ccc(Cl)cc2)c(-c2ccc(Cl)c(C(F)(F)F)c2)c1O` [NUCC-0227037], in data set [2], the AUMC0-t amounted to 53530 h*h*ng/mL and the “AUMC0-∞” value amounted to 66373 h*h*ng/mL. The TGI in the data set on MycCaP;Pten-KO cells (10 mg/kg p.o.) was found to be 43.99%. Further, in the data set on MycCaP;Pten-KO cells (30 mg/kg p.o.), the TGI is recorded as 57.24%. Further, in the data set with MycCaP;Pten-KO cells (100 mg/kg p.o.), the TGI amounted to 81.48%. Besides, in the data set on MycCaP;Pten-KO cells, the “Efficacy MycCaP;Pten-ko” value is reported as 80. Further, the fold induction at 10 µM in the data set with ATF4 was 15.1. Besides, in the data set with PC3 cells, half-maximal inhibition (IC50) required 960 nM. Besides, the remaining activity at 10 µM at MYC turned out to be 33.6%. In the data set with PC12 cells, this compound had an IC50 of 11100 nM. In data set [3], this compound came in with an AUC(0-inf) of 4200 ng·h/mL, an AUC(0-t) of 4000 ng·h/mL, a Cmax of 202 ng/mL and an MRT inf of 15.8 h. Further, the Tmax in data set [3] stood at 4 h. In addition, the half-life in data set [3] (T1/2, Table 6, PO 1 mg/kg) is 10.7 h. In addition, the half-life in data set [3] (T1/2—range*, Table 6, PO 1 mg/kg) lay in the range of 8 to 48 h.
On to `Cn1nc(C(F)(F)F)cc1-c1cc(C(F)(F)F)c(COc2ccc(Cl)cc2)c(-c2ccc(Cl)c(C(F)(F)F)c2)c1O` [NUCC-0227244], for which the fold induction at 10 µM with ATF4 came out at 22.8. For the same compound, the IC50 came to 570 nM with PC3 cells and 4550 nM in the data set with PC12 cells. Besides, the “Toxicity @ 100 mg/kg/d” value in data set [1] is given as “++ (++, 15-20% weight loss)”. Further, the remaining activity at 10 µM on MYC is 39.5%.
As to `Cn1nc(C(F)(F)F)cc1-c1cc(Cl)c(Oc2ccc(Cl)cc2)c(-c2ccc(Cl)c(C(F)(F)F)c2)c1O` [NUCC-0227245], the fold induction at 10 µM in the data set with ATF4 was determined as 20.3 ± 3.7. Also, the half-inhibitory concentration (IC50) was 490 nM in the data set with PC3 cells and 3810 nM in the data set on PC12 cells. Further, the “Toxicity @ 100 mg/kg/d” value in data set [1] is reported as “+++ (+++, >20% weight loss or death)”. Further, the remaining activity at 10 µM at MYC is 37.1 ± 1%.
